Legend:
[1] = Polymorph screening by equilibration in solvents at 25° C. (crystal modification, XRPD); format: physicochemical
[2] = Bulk stability (accelerated stability, one week; HPLC and XRPD); conditions: for physical and chemical stability (in words): 25° C./92% RH open, 40° C./75% RH open, 60° C. tight container, one week; for Bulk (XRPD) / Color / Purity, Bulk (HPLC): Solid state, 1 week; for Initial HPLC purity: before storage
Protocol: Bulk stability: Accelerated stability experiments were conducted at 25° C./92% RH and 40° C./75% RH in an open container, 60° C. in a tight container for one week.
Samples were characterized by XRPD and HPLC and inspected for color change.
Accelerated stability experiments were conducted at 25° C./92% RH in an open container, at 40° C./75% RH in an open container, and at 60° C. in a tight container for one week.

[3] = Hygroscopicity by DVS at 25° C.; format: physicochemical; conditions: for Hygroscopicity (in words): DVS 25° C.; for XRPD after DVS test: after 40-0-95-0-40% RH cycle, 25° C.
Protocol: Hygroscopicity was investigated by DVS at 25° C., using the following method: […]

[4] = Ex vivo permeation and penetration across porcine vaginal tissue (Franz diffusion cells, IVPT); format: in vitro ADME; conditions: FIG. 116
Source text: (§1) FIG. 116 is an in vitro tissue permeation test in vaginal tissue comparing Compound II to ABI-1968. […] Bars B and C show the tissue penetration of a 0.1% Compound II gel in human cervical tissue. […] This may be a contributing factor to the performance of ABI-1968 in clinical studies. […] This is described in Example 41.
Freshly harvested porcine vaginal tissue was procured from local slaughterhouse in an ice box. The vaginal tissue was cut open to expose the mucosal surface and tissue was cleaned by gentle flow of PBS pH 7.4. The porcine vaginal tissue was cut into circular portions (approximately 2 cm^2) with help of a […] punch.
The circular portion of tissue was sandwiched between two chambers of a Franz diffusion cell with an active diffusion area of 1 cm^2, and the mucosal layer was exposed to the donor chambers. The resistance across porcine vaginal tissue was measured using a wave form generator to ensure the integrity of the tissue segment used for the permeation study. Porcine vaginal tissue with resistance of ≥3 KΩ·cm^2 was used for study. The receiver chamber was filled with 8 ml of 5% solutol PBS 7.4 pH, which was stirred at 600 rpm with a 3 mm magnetic stir bar and the temperature was maintained at 37° C. with a circulating water bath.
The ˜200 mg of gel was filled into tared 1 mL syringe and gel was dispensed to donor chamber. […]

[5] = Solubility in buffers, water and simulated vaginal fluid at 37° C.; conditions: for solubility / solubility at 0.5 h / solubility at 2 h: 37 °C, thermodynamic from solid; for pH of solution, 2 hours / Solubility 2 hours: 37° C.; for Solubility 2 hours: target 10 mg/5 mL
Protocol: About 4 mg of Compound I Pattern 1 was added into 2 mL of buffer solution.
(§2) Solubility was tested in five media, pH 3.0 citrate buffer, pH 4.5 acetate buffer, pH 6.8 phosphate buffer, water, simulated vaginal fluid (pH 4.2) at 37° C. for 0.5 h and 2 h.
The salt amount used is equivalent to 10 mg anhydrous free base. […] The obtained clear solutions were analyzed by pH meter for pH, and solubility was determined by observation.
as §2

[6] = In vitro tissue permeation test in human cervical tissue; format: in vitro ADME; conditions: 0.1% gel, FIG. 116
Source text: as §1

[7] = PS7, solvent IPA/heptanes (3/10, v/v)
[8] = PS8, solvent water/ACN (2.9/97.1, v/v)
[9] = PS9, solvent IPA/MTBE (1/3, v/v)
[10] = PS10, solvent EA/toluene (1/3, v/v)
[11] = cycle of 40-0-95-0-45% relative humidity
[12] = pH 4.2, fassgf or other biorelevant
[13] = Simulated vaginal fluid (pH adjusted by 0.1N NaOH)

For `CCOC(=O)[C@H](C)N[P@@](=O)(COCCn1cnc2c(OC)nc(N)nc21)OCc1ccccc1.O=C(O)/C=C/C(=O)O` [Compound II], which “Crystal modification after 1 week equilibration at 25° C.” value (“Crystal modification” for short) ([1]; PS1, solvent IPA) is on record?
Its value is “Compound II Pattern 1”.

What about the “Crystal modification” value ([1]; PS2, solvent Heptanes) of the same compound?
Its value is “Compound II Pattern 1”.

And the “Crystal modification” value ([1]; PS3, solvent Water)?
The value was “Compound II Pattern 1”.

What about the “Crystal modification” value ([1]; PS4, solvent ACN) of the same compound?
Its value is “Compound II Pattern 2”.

What about the “Crystal modification” value ([1]; PS5, solvent MEK) of the same compound?
The value was “Compound II Pattern 3”.

And the “Crystal modification” value ([1]; PS6, solvent Acetone)?
The value was “Compound II Pattern 1”.

What about the “Crystal modification” value [1, 7] of the same compound?
The value was “Compound II Pattern 1”.

What about the “Crystal modification” value [1, 8] of the same compound?
The value was “Compound II Pattern 2”.

And the “Crystal modification” value [1, 9]?
The value was “Compound II Pattern 1”.

And the “Crystal modification” value [1, 10]?
The value was “Compound II Pattern 1”.

What about the “physical and chemical stability (in words)” value [2] of the same compound?
Its value is “good physical and chemical stability”.

What about the “Bulk (XRPD)” value ([2]; 25° C./92% RH, open container) of the same compound?
The value was “No form change”.

What about the Color ([2]; 25° C./92% RH, open container) of the same compound?
The Color was “No change”.

And the “Purity, Bulk (HPLC)” value ([2]; 25° C./92% RH, open container)?
Its value is 99.5%.

What about the “Bulk (XRPD)” value ([2]; 40° C./75% RH, open container) of the same compound?
The value was “No form change”.

And the Color ([2]; 40° C./75% RH, open container)?
The Color was “No change”.

What about the “Purity, Bulk (HPLC)” value ([2]; 40° C./75% RH, open container) of the same compound?
The value was 99.4%.

And the “Bulk (XRPD)” value ([2]; 60° C., tight container)?
Its value is “No form change”.

What about the Color ([2]; 60° C., tight container) of the same compound?
The Color was “No change”.

And the “Purity, Bulk (HPLC)” value ([2]; 60° C., tight container)?
The value was 99.7%.

And the “Initial HPLC purity” value [2]?
The value was 99.7%.

And the “Hygroscopicity (in words)” value [3]?
The value was “slightly hygroscopic”.

And the “XRPD after DVS test” value [3]?
The value was “No form change”.

What about the “XRPD pattern after humidity cycle” value [3, 11] of the same compound?
Its value is “does not change”.

And the “tissue penetration (in words)” value [4]?
Its value is “high tissue penetration”.

What about the solubility ([5]; aqueous buffer) of the same compound?
The solubility was over 2000 µg/mL.

And the solubility at 0.5 h ([5]; pH 3, aqueous buffer)?
Its solubility at 0.5 h is over 2000 µg/mL.

And the solubility at 2 h ([5]; pH 3, aqueous buffer)?
The solubility at 2 h was over 2000 µg/mL.

What about the solubility at 0.5 h [5, 12] of the same compound?
Its solubility at 0.5 h is over 2000 µg/mL.

What about the solubility at 2 h [5, 12] of the same compound?
The solubility at 2 h was over 2000 µg/mL.

And the solubility at 0.5 h ([5]; pH 4.5, aqueous buffer)?
Its solubility at 0.5 h is over 2000 µg/mL.

What about the solubility at 2 h ([5]; pH 4.5, aqueous buffer) of the same compound?
The solubility at 2 h was over 2000 µg/mL.

What about the solubility at 0.5 h ([5]; pH 6.8, aqueous buffer) of the same compound?
Its solubility at 0.5 h is over 2000 µg/mL.

And the solubility at 2 h ([5]; pH 6.8, aqueous buffer)?
Its solubility at 2 h is over 2000 µg/mL.

What about the solubility at 0.5 h ([5]; water) of the same compound?
Its solubility at 0.5 h is over 2000 µg/mL.

And the solubility at 2 h ([5]; water)?
The solubility at 2 h was over 2000 µg/mL.

What about the “pH of solution, 2 hours” value [5, 13] of the same compound?
Its value is “(5.79)”.

What about the “pH of solution, 2 hours” value ([5]; Water) of the same compound?
The value was “(2.87)”.

And the “pH of solution, 2 hours” value ([5]; pH 3.0, 100 mM citrate buffer)?
The value was “(2.85)”.

What about the “pH of solution, 2 hours” value ([5]; pH 4.5, 50 mM acetate buffer) of the same compound?
Its value is “(4.2)”.

What about the “pH of solution, 2 hours” value ([5]; pH 6.8, 50 mM phosphate buffer) of the same compound?
The value was “(6.47)”.

And the “tissue penetration (in words)” value [6]?
The value was “high tissue penetration”.

For `CCCCCCCCCCCCCCCCCCOCCOP(=O)(O)COCCn1cnc2c(=O)[nH]c(N)nc21` [ABI-1968, reference compound], which “tissue penetration (in words)” value [4] is on record?
The value was “substantially smaller degree”.

For `CCOC(=O)[C@H](C)N[P@](=O)(COCCn1cnc2c(OC)nc(N)nc21)OCc1ccccc1` (single isomer, unassigned) [Compound III, monofumarate], which “Crystal modification” value ([1]; PS1, solvent IPA) is on record?
Its value is “Compound V Pattern 2”.

What about the “Crystal modification” value ([1]; PS2, solvent Heptanes) of the same compound?
Its value is “Compound III Pattern 2”.

And the “Crystal modification” value ([1]; PS3, solvent Water)?
The value was “Compound III Pattern 3”.

What about the “Crystal modification” value ([1]; PS4, solvent ACN) of the same compound?
The value was “Compound III Pattern 4”.

And the “Crystal modification” value ([1]; PS5, solvent MEK)?
Its value is “Compound III Pattern 5”.

And the “Crystal modification” value [1, 7]?
Its value is “Compound III Pattern 2”.

What about the “Crystal modification” value [1, 8] of the same compound?
The value was “Compound III Pattern 4”.

What about the “Crystal modification” value [1, 9] of the same compound?
Its value is “Compound III Pattern 6”.

And the “Crystal modification” value [1, 10]?
The value was “Compound III Pattern 2”.

What about the “physical and chemical stability (in words)” value [2] of the same compound?
The value was “good physical stability”.

What about the “Bulk (XRPD)” value ([2]; 25° C./92% RH, open container) of the same compound?
The value was “No form change”.

And the Color ([2]; 25° C./92% RH, open container)?
Its Color is “No change”.

What about the “Purity, Bulk (HPLC)” value ([2]; 25° C./92% RH, open container) of the same compound?
Its value is 98.7%.

What about the “Bulk (XRPD)” value ([2]; 40° C./75% RH, open container) of the same compound?
The value was “No form change (One”.

And the Color ([2]; 40° C./75% RH, open container)?
Its Color is “No change”.

What about the “Purity, Bulk (HPLC)” value ([2]; 40° C./75% RH, open container) of the same compound?
The value was 97.2%.

And the “Bulk (XRPD)” value ([2]; 60° C., tight container)?
The value was “No form change (One”.

What about the Color ([2]; 60° C., tight container) of the same compound?
The Color was “No change”.

What about the “Purity, Bulk (HPLC)” value ([2]; 60° C., tight container) of the same compound?
The value was 97.3%.

What about the “Initial HPLC purity” value [2] of the same compound?
Its value is 98.8%.

What about the “Hygroscopicity (in words)” value [3] of the same compound?
Its value is “slightly hygroscopic”.

What about the “XRPD after DVS test” value [3] of the same compound?
The value was “No form change”.

And the “XRPD pattern after humidity cycle” value [3, 11]?
The value was “lose one of the peaks”.

What about the “increase in retained water content versus Compound II” value [3, 11] of the same compound?
Its value is 40 fold.

What about the solubility ([5]; aqueous buffer) of the same compound?
The solubility was over 2000 µg/mL.

And the solubility ([5]; pH 3, aqueous buffer)?
The solubility was over 2000 µg/mL.

And the solubility [5, 12]?
The solubility was over 2000 µg/mL.

And the solubility ([5]; pH 4.5, aqueous buffer)?
The solubility was over 2000 µg/mL.

And the solubility ([5]; pH 6.8, aqueous buffer)?
Its solubility is over 2000 µg/mL.

And the solubility ([5]; water)?
Its solubility is over 2000 µg/mL.

What about the “pH of solution, 2 hours” value [5, 13] of the same compound?
Its value is 5.37.

What about the “Solubility 2 hours” value [5, 13] of the same compound?
The value was over 2000 µg/mL.

And the “pH of solution, 2 hours” value ([5]; Water)?
Its value is 2.78.

And the “Solubility 2 hours” value ([5]; Water)?
Its value is over 2000 µg/mL.

What about the “pH of solution, 2 hours” value ([5]; pH 3.0, 100 mM citrate buffer) of the same compound?
Its value is 2.83.

What about the “Solubility 2 hours” value ([5]; pH 3.0, 100 mM citrate buffer) of the same compound?
The value was over 2000 µg/mL.

And the “pH of solution, 2 hours” value ([5]; pH 4.5, 50 mM acetate buffer)?
The value was 4.12.

What about the “Solubility 2 hours” value ([5]; pH 4.5, 50 mM acetate buffer) of the same compound?
The value was over 2000 µg/mL.

And the “pH of solution, 2 hours” value ([5]; pH 6.8, 50 mM phosphate buffer)?
Its value is 6.44.

And the “Solubility 2 hours” value ([5]; pH 6.8, 50 mM phosphate buffer)?
Its value is over 2000 µg/mL.
